According to PMC3522796 (Cancer letters, 2012):
“Also recorded” adds a separate entry of the source. Where two headings read alike, the source gives them in different places.

Legend:
tubulin = tubulin (Sus scrofa, UniProt P02554); assay: Tubulin polymerization assay; type: biochemical
[1] = tested on: 4T1 mouse mammary carcinoma cells; assay: In-vitro cytotoxicity, MTT assay; type: cell-based
microtubule = conditions: cited from earlier work; for Microtubule assembly: 10 µM
HeLa cells = conditions: cited from earlier work
[2] = rabbit model; cited from earlier work
human MCF-7 cells = conditions: 72 h incubation; cited from earlier work
mice = conditions: cited from earlier work
[3] = tested on: M109 subcutaneous lung tumor; conditions: cited from earlier work; for Antitumor efficacy: at MTD; for Tumor AUC of PX fold greater than Taxol: i.v.
human tumor cell lines = conditions: variety of human tumor cell lines; cited from earlier work
[4] = tested on: metastatic malignant melanoma; conditions: Phase III, every 3-week treatment schedule; cited from earlier work
P-glycoprotein (P-gp) = conditions: cited from earlier work

Sequence of tubulin (P02554 whole entry): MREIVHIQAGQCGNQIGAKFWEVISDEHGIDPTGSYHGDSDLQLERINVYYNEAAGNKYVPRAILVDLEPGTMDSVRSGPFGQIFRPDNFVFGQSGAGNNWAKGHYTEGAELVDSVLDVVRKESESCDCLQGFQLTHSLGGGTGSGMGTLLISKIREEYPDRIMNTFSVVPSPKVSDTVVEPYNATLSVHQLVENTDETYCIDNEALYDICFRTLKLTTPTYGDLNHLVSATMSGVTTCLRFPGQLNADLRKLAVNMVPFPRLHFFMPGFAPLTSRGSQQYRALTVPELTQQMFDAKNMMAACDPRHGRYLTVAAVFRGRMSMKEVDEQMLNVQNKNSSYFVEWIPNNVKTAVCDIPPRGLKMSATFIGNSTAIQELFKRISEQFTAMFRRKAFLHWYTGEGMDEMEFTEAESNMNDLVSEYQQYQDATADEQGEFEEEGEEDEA
Sequence of tubulin (P02550 whole entry partner): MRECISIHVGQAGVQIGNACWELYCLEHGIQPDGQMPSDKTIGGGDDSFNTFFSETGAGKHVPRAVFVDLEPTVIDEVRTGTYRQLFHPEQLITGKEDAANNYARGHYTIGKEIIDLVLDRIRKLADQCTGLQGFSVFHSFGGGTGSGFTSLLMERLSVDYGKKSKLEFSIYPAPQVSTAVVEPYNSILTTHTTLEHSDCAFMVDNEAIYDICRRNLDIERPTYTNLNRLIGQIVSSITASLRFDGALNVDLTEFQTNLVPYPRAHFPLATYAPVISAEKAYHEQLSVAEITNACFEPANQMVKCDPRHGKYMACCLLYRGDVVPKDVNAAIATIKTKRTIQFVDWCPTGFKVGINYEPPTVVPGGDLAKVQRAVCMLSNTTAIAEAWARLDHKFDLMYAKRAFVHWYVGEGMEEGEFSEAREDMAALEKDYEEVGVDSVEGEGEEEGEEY

In the case of “2’-behenoyl-paclitaxel [Formulation C22-PX]”, the “Effect on tubulin polymerization” value (tubulin; 5 µM, compared to control) is reported as “no effect on tubulin polymerization”, the “Effect on tubulin polymerization” value (tubulin; 10 µM, compared to control) is reported as “no effect on tubulin polymerization; also recorded: no microtubule activity” and the “Effect on tubulin polymerization” value (tubulin; 20 µM, compared to control (p < 0.01)) is reported as “some tubulin polymerization activity”. The “IC50 fold higher than PX” value ([1]; 4T1 cells) was “about 8 fold” and the IC50 ([1]; 4T1 cells, MTT, 48 h) was 0.282 ± 0.042 µM.
For `CCCCCC=CCC=CCCCCCCCC(=O)OC(C(=O)OC1CC2(O)C(OC(=O)c3ccccc3)C3C4(OC(C)=O)COC4CC(O)C3(C)C(=O)C(OC(C)=O)C(=C1C)C2(C)C)C(NC(=O)c1ccccc1)c1ccccc1` (stereo not drawn) [2’-linoleic acid-PX], the Microtubule assembly (microtubule) is listed as “not able to assemble microtubule”.
In the case of `CCCCCCCCC=CCCCCCCCC(=O)OC(C(=O)OC1CC2(O)C(OC(=O)c3ccccc3)C3C4(OC(C)=O)COC4CC(O)C3(C)C(=O)C(OC(C)=O)C(=C1C)C2(C)C)C(NC(=O)c1ccccc1)c1ccccc1` (stereo not drawn) [2’-oleate-PX], the IC50 (HeLa cells; 24 h incubation, in lipid emulsions) is given as 5.5 µM, the IC50 (HeLa cells; 48 h incubation) is given as 0.5 µM and the IC50 (HeLa cells; 72 h incubation, in lipid emulsions) is given as 0.15 µM. The IC50 (HeLa cells; 96 h incubation, in lipid emulsions) was 0.1 µM and the “Pharmacokinetics compared to PX formulated in Cremophor EL/Ethanol” value [2] was “significantly greater AUC, higher Cmax, and lower systemic clearance”.
For `CCCCCCCCCCCCCCC(Br)C(=O)OC(C(=O)OC1CC2(O)C(OC(=O)c3ccccc3)C3C4(OC(C)=O)COC4CC(O)C3(C)C(=O)C(OC(C)=O)C(=C1C)C2(C)C)C(NC(=O)c1ccccc1)c1ccccc1` (stereo not drawn) [2’-α-bromohexadecanoyl-PX], the “Fold less potent compared to PX” value (human MCF-7 cells) is given as 70 fold.
For `CC/C=C\C/C=C\C/C=C\C/C=C\C/C=C\C/C=C/CCC(=O)O[C@@H](C(=O)O[C@H]1C[C@@]2(O)[C@@H](OC(=O)c3ccccc3)C3[C@](C)(C(=O)[C@H](OC(C)=O)C(=C1C)C2(C)C)[C@@H](O)C[C@H]1OC[C@@]31OC(C)=O)[C@@H](NC(=O)c1ccccc1)c1ccccc1` (stereo partly drawn) [DHA-PX, docosahexaenoic acid-PX], the “MTD fold higher compared to Taxol” value (mice) is listed as 4.4 fold, the Antitumor efficacy [3] is listed as “completely eliminated measurable tumors” and the “Tumor AUC of PX fold greater than Taxol” value ([3]; equimolar dose) is listed as 1.71 fold. For the same compound, the “Tumor AUC of PX fold greater than Taxol” value ([3]; equitoxic dose) was 5.79 fold, the Microtubule assembly (microtubule) was “not able to assemble microtubule” and the Microtubule assembly activity (microtubule) was “does not have microtubule assembly activity”. For the same compound, the Cytotoxic concentration range (human tumor cell lines) was “µM concentration range”, the Overall survival [4] was “not superior to dacarbazine” and the P-gp substrate (P-glycoprotein (P-gp)) was “remains a P-gp substrate”.
With `CC(=O)O[C@H]1C(=O)[C@@]2(C)[C@H]([C@H](OC(=O)c3ccccc3)[C@]3(O)C[C@H](OC(=O)[C@H](O)[C@@H](NC(=O)c4ccccc4)c4ccccc4)C(C)=C1C3(C)C)[C@]1(OC(C)=O)CO[C@@H]1C[C@@H]2O` [PX, Paclitaxel] the “Vmax of tubulin polymerization” value (tubulin; 10 µM, 37°C, 3 mg/ml tubulin, standard control 25.3 ± 3.2) was 45.0 ± 3.6 mOD/min, the “Effect on tubulin polymerization” value (tubulin; 10 µM, compared to control) was “could stabilize microtubule proteins” and the IC50 ([1]; Mus musculus, 4T1, 48 h) was 0.038 ± 0.001 µM. The Antitumor efficacy [3] was “did not result in even partial tumor regression”, the Cytotoxic concentration range (human tumor cell lines) was “nM range” and the P-gp substrate (P-glycoprotein (P-gp)) was “substrate of P-glycoprotein”.
